Data as given in patent publication US7452886B2, “Pyrrolo pyrimidines as agents for the inhibition of cystein proteases” (Novartis AG, priority 2001, dated 2008).
pIC50: −log10 of the molar value.

Biological target: T1, recombinant human cathepsin K (Homo sapiens, UniProt P43235)
T1 sequence (P43235 115-329): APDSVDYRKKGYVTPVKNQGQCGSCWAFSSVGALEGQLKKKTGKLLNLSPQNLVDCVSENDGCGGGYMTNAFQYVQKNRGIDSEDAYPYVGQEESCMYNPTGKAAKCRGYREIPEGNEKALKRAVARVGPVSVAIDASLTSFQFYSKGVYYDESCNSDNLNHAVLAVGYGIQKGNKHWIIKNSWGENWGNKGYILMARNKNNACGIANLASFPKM
Assay: In vitro inhibition of recombinant human cathepsin K (Z-Phe-Arg-AMCA fluorescence assay)
Type: biochemical
Settings: recombinant human cathepsin K 0.16 nM, Z-Phe-Arg-AMCA substrate, pH 7.0, 30 min preincubation, 30 min incubation, ambient temperature
Method: The In Vitro assay is Carried out as Follows:
The assay is performed in 96 well microtiter plates at ambient temperature using recombinant human cathepsin K. Inhibition of cathepsin K is assayed at a constant enzyme (0.16 nM) and substrate concentration ([…] Z-Phe-Arg-AMCA—Peptide Institute Inc. Osaka, Japan) in 100 mM sodium phosphate buffer, pH 7.0, containing 2 mM dithiothreitol 20 mM Tween 80 and 1 mM EDTA. Cathepsin K is preincubated with the inhibitors for 30 min, and the reaction is initiated by the addition of substrate. After 30 min incubation the reaction is stopped by the addition of E-64 (2 mM), and fluorescence intensity is read on a multi-well plate reader at excitation and emission wavelengths of 360 and 460 nm, respectively. […] Thus for example, the compounds of Examples 6-15 and 7-45 have IC50s for inhibition of human cathepsin K of 1 nM and 0.6 nM respectively.

SMILES	pIC50
CC(C)(C)Cn1c(CN2CCC3(CC2)NC(=O)NC3=O)cc2cnc(C#N)nc21 [Example 7-45]	9.22
Cc1ccc(N2CCN(Cc3cc4cnc(C#N)nc4n3CC(C)(C)C)CC2)cc1 [Example 6-15]	9.00
